# In the oligonucleotide strings, read from the 5' end, every base follows the letter of its sugar. An asterisk marks phosphorothioate; unmarked linkages are phosphodiester. Other units and linkages are bracketed, terminal groups are in braces. A string of capitals states the bases alone. e = 2'-O-(2-methoxyethyl) (MOE); [5mC] = 5-methylcytosine
# Experiments:
# Assay type in all cases: cell-based, human
# [1] = test system: adipocytes; assay: Triglyceride accumulation assay in adipocytes
# Description: The triglyceride accumulation assay measures the synthesis of triglyceride by adipocytes. Triglyceride accumulation is measured using the Infinity™ Triglyceride reagent kit (Sigma-Aldrich, St. Louis, Mo.). On day nine post-transfection, cells are washed and lysed at room temperature, and the triglyceride assay reagent is added. Triglyceride accumulation is measured based on the amount of glycerol liberated from triglycerides by the enzyme lipoprotein lipase. Liberated glycerol is phosphorylated by glycerol kinase, and hydrogen peroxide is generated during the oxidation of glycerol-1-phosphate to dihydroxyacetone phosphate by glycerol phosphate oxidase. Horseradish peroxidase (HRP) uses H2O2 to oxidize 4-aminoantipyrine and 3,5 dichloro-2-hydroxybenzene sulfonate to produce a red-colored dye. Dye absorbance, which is proportional to the concentration of glycerol, is measured at 515 nm using an UV spectrophotometer. Glycerol concentration is calculated from a standard curve for each assay, and data are normalized to total cellular protein as determined by a Bradford assay (Bio-Rad Laboratories, Hercules, Calif.).
# An increase in triglyceride content is another well-established marker for adipocyte differentiation. The triglyceride accumulation assay measures the synthesis of triglyceride by adipocytes. Triglyceride accumulation was measured using the Infinity™ Triglyceride reagent kit (Sigma-Aldrich, St. Louis, Mo.). Human white preadipocytes (Zen-Bio Inc., Research Triangle Park, N.C.) were grown in preadipocyte media (ZenBio Inc.). One day before transfection, 96-well plates were seeded with 3000 cells/well. Cells were transfected according to standard published procedures with 250 nM oligomeric compound in LIPOFECTIN™ (Invitrogen Corporation, Carlsbad, Calif.) (Monia et al., J. Biol. Chem. 1993 268(19):14514-22). Oligomeric compounds were tested in triplicate on each 96-well plate, and the effects of TNF-α, a positive drug control that inhibits adipocyte differentiation, were also measured in triplicate. Negative and transfectant-only controls may be measured up to six times per plate. After the cells have reached confluence (approximately three days), they were exposed to differentiation media (Zen-Bio, Inc.) containing a PPAR-γ agonist, IBMX, dexamethasone, and insulin for three days. Cells were then fed adipocyte media (Zen-Bio, Inc.), which was replaced at 2 to 3 day intervals. […] Triglyceride accumulation was measured based on the amount of glycerol liberated from triglycerides by the enzyme lipoprotein lipase. Liberated glycerol is phosphorylated by glycerol kinase, and hydrogen peroxide is generated during the oxidation of glycerol-1-phosphate to dihydroxyacetone phosphate by glycerol phosphate oxidase. Horseradish peroxidase (HRP) uses H2O2 to oxidize 4-aminoantipyrine and 3,5 dichloro-2-hydroxybenzene sulfonate to produce a red-colored dye. Dye absorbance, which is proportional to the concentration of glycerol, was measured at 515 nm using an UV spectrophotometer. Glycerol concentration was calculated from a standard curve for each assay, and data were normalized to total cellular protein as determined by a Bradford assay (Bio-Rad Laboratories, Hercules, Calif.). Results are expressed as a percent±standard deviation relative to transfectant-only control.
# [2] = test system: aP2; assay: aP2 mRNA expression in adipocytes (real-time PCR); settings: for aP2 mRNA: Table 75
# Description: (§1) Expression of the four hallmark genes, HSL, aP2, Glut4, and PPARγ, is also measured in adipocytes transfected with oligomeric compounds of the invention. Cells are lysed on day nine post-transfection and total RNA is harvested. The amount of total RNA in each sample is determined using a Ribogreen Assay (Invitrogen Life Technologies, Carlsbad, Calif.).
# (§2) For assaying adipocyte differentiation, expression of the four hallmark genes, HSL, aP2, Glut4, and PPARγ, as well as triglyceride (TG) accumulation and leptin secretion were measured in adipocytes transfected with the uniform 2′-MOE phosphorothioate (PS) oligomeric compounds previously described. Cells are lysed on day nine post-transfection, in a guanadinium-containing buffer and total RNA is harvested. Real-time PCR is performed (Applied Biosystems, Prism 7700) on the total RNA using the following primer/probe sets for the adipocyte differentiation hallmark genes: (aP2): forward 5′-GGTGGTGGAATGCGTCATG-3′ (SEQ ID NO: 746), reverse 5′-[…]-3′ (SEQ ID NO: 747), probe 5′-FAM-[…]-TAMRA-3′ (SEQ ID NO: 748); (Glut4): forward 5′-GGCCTCCGCAGGTTCTG-3′ (SEQ ID NO: 749), reverse 5′-[…]-3′ (SEQ ID NO: 750), probe 5′-FAM-[…]-TAMRA-3′ (SEQ ID NO: 751); (HSL): forward 5′-ACCTGCGCACAATGACACA-3′ (SEQ ID NO: 752), reverse 5′-[…]-3′ (SEQ ID NO: 753), probe 5′-FAM-[…]-TAMRA-3′ (SEQ ID NO: 754); (PPAR-γ): forward 5′-[…]-3′ (SEQ ID NO: 755), reverse 5′-[…]-3′ (SEQ ID NO: 756), probe 5′-FAM-[…]-TAMRA-3′ (SEQ ID NO: 757). The amount of total RNA in each sample is determined using a Ribogreen Assay (Molecular Probes, Eugene, Oreg.), and expression levels of the adipocyte differentiation hallmark genes were normalized to total RNA.
# [3] = test system: PPARγ; assay: PPARγ mRNA expression in adipocytes (real-time PCR)
# Description: as §1, §2
# [4] = test system: Glut4; assay: Glut4 mRNA expression in adipocytes (real-time PCR)
# Description: as §1, §2
# [5] = test system: HSL; assay: HSL mRNA expression in adipocytes (real-time PCR)
# Description: as §1, §2
# [6] = Table 18, differentiating adipocytes, control = treatment with ISIS 342673
# [7] = differentiating adipocytes transfected with oligomeric compound, Table 75
# [8] = differentiating adipocytes transfected with oligomeric compound
# [9] = Table 17, differentiating adipocytes, control = treatment with ISIS 342673
Substance,"TG (triglyceride accumulation) [1, 7]","aP2 mRNA [2, 8]","PPAR gamma mRNA [3, 7]","GLUT4 mRNA [4, 7]","HSL mRNA [5, 7]",also measured
328107 (antisense e[5mC]*eT*eG*eT*eG*eA*e[5mC]*eT*eT*e[5mC]*eT*e[5mC]*eT*eA*eT*e[5mC]*eT*eG*e[5mC]*e[5mC]*eT) [compound 328107],51 percentage of untreated control (UTC),68 percentage of untreated control (UTC),71 percentage of untreated control (UTC),52 percentage of untreated control (UTC),55 percentage of untreated control (UTC),"TG (triglyceride accumulation) [1, 6]: 66.7 percentage of control; AP2 mRNA [2, 6]: 67.5 percentage of control; PPAR gamma mRNA [3, 6]: 79.3 percentage of control; GLUT4 mRNA [4, 6]: 72.5 percentage of control; HSL mRNA [5, 6]: 61.0 percentage of control"
"340358 (antisense CAGCUAUGCCAGCAUCUUGCC; all 2'-MOE, all phosphorothioate, methylation of C and T or U not given here) [compound 340358]",23 percentage of untreated control (UTC),47 percentage of untreated control (UTC),42 percentage of untreated control (UTC),21 percentage of untreated control (UTC),24 percentage of untreated control (UTC),–
328093 (antisense eT*eA*eA*eA*e[5mC]*eA*eT*e[5mC]*eA*e[5mC]*eT*eG*e[5mC]*eA*eA*eG*eT*e[5mC]*eT*eT*eA) [compound 328093],–,–,–,–,–,"TG (triglyceride accumulation) [1, 8]: 59 percentage of untreated control (UTC); AP2 mRNA [2, 8]: 97 percentage of untreated control (UTC); PPAR gamma mRNA [3, 8]: 99 percentage of untreated control (UTC); GLUT4 mRNA [4, 8]: 73 percentage of untreated control (UTC); HSL mRNA [5, 8]: 89 percentage of untreated control (UTC)"
"344342 (AUGCUUUUUGGGGUAAGGGCUU; anti-miR; all 2'-MOE, all phosphorothioate, methylation of C and T or U not given here) [compound 344342]",88 percentage of untreated control (UTC),88 percentage of untreated control (UTC),83 percentage of untreated control (UTC),71 percentage of untreated control (UTC),87 percentage of untreated control (UTC),–
"344340 (UGUCCGUGGUUCUACCCUGUGGUA; all 2'-MOE, all phosphorothioate, methylation of C and T or U not given here) [compound 344340]",60 percentage of untreated control (UTC),82 percentage of untreated control (UTC),67 percentage of untreated control (UTC),16 percentage of untreated control (UTC),47 percentage of untreated control (UTC),–
"344615 (UCAACAAAAUCACUGAUGCUGGA; anti-miR; all 2'-MOE, all phosphorothioate, methylation of C and T or U not given here) [compound 344615]",149 percentage of untreated control (UTC),166 percentage of untreated control (UTC),144 percentage of untreated control (UTC),145 percentage of untreated control (UTC),154 percentage of untreated control (UTC),–
"346908 (GCUUUGACAAUACUAUUGCACUG; all 2'-MOE, all phosphorothioate, methylation of C and T or U not given here) [compound 346908]",75 percentage of untreated control (UTC),77 percentage of untreated control (UTC),77 percentage of untreated control (UTC),65 percentage of untreated control (UTC),71 percentage of untreated control (UTC),–
"348125 (GCUGGAUGCAAACCUGCAAAACU; anti-miR; all 2'-MOE, all phosphorothioate, methylation of C and T or U not given here) [compound 348125]",79 percentage of untreated control (UTC),67 percentage of untreated control (UTC),64 percentage of untreated control (UTC),65 percentage of untreated control (UTC),64 percentage of untreated control (UTC),–
328097 (antisense eT*eG*eT*e[5mC]*eA*eG*eA*eT*eA*eA*eA*e[5mC]*eA*eG*eA*eG*eT*eG*eG*eA*eA) [compound 328097],65 percentage of untreated control (UTC),48 percentage of untreated control (UTC),63 percentage of untreated control (UTC),62 percentage of untreated control (UTC),54 percentage of untreated control (UTC),–
328124 (antisense eA*eG*e[5mC]*eA*eG*eG*eT*eG*eA*eA*eG*eG*e[5mC]*eA*e[5mC]*e[5mC]*eT*eG*eG*e[5mC]*eT) [compound 328124],108 percentage of untreated control (UTC),118 percentage of untreated control (UTC),92 percentage of untreated control (UTC),105 percentage of untreated control (UTC),96 percentage of untreated control (UTC),"TG (triglyceride accumulation) [1, 9]: 99.1 percentage of control; AP2 mRNA [2, 9]: 101.8 percentage of control; PPAR gamma mRNA [3, 9]: 90.4 percentage of control; GLUT4 mRNA [4, 9]: 122.7 percentage of control; HSL mRNA [5, 9]: 103.6 percentage of control"
